The record followed here is US20210371804A1, “Videomicroscopy of contractile cell cultures and cell culture methods using same” (Institut de Cardiologie de Montréal, priority 2020, published 2021).

This experiment has as its system neonatal cardiomyocytes. Nature of the experiment: Videomicroscopy of contraction (composite signal ΔS) of neonatal cardiomyocyte monolayers. Format: cell-based, rat. The settings on record: 1 minute after injection. As to the method: All animal-handling procedures were concordant with the Canadian Council on Animal Care guidelines and were approved by the institutional Animal Research Ethics Committee. Isolation was performed according to the protocol of the neonatal cardiomyocyte isolation kit from Worthington. In summary, one to three days old rats (Sprague-Dawley, Charles River) were sacrificed by decapitation. Beating heart were removed from the rats and immediately put in cold Ca^2+ and Mg^2+-free Hank's Balanced Salt Solution. Ventricular muscle was selected by excision and tissue was minced on ice into 1-3 mm^3 pieces. The mixture was subjected to purified enzymatic digestion (trypsin and collagenase). Isolated cells (enriched cardiomyocytes) were counted and seeded at a density of 10^6 cells/mL in the seeding area of the membrane pre-coated with 0.2% porcine-derived gelatin (G1890, Sigma) and 0.00125% fibronectin solution (F1141, Sigma). Cells were grown for 24 hours in DMEM (319-050-CL, Wisent) with 5% fetal bovine serum (FBS, SH30396.03, Fisher Scientic Co. Ltd) and 1% penicillin/streptomycin (450-201-EL, Wisent). Cardiomyocytes were then FBS starved with 1% penicillin/streptomycin in DMEM 24 h prior to the experiments. Acute effects of the β-adrenergic agonist, isoproterenol (ISO, 16504, Sigma-Aldrich) was studied by videomicroscopy with final concentration of 100 nM at 1 minute after injection. […]

Regarding `CC(C)NCC(O)c1ccc(O)c(O)c1` (centres unmarked) [ISO, isoproterenol], the “slope of the linear regression of <RatioC/R> as a function of <T>” value (ISO 100 nM, 0.146 for CTL, <T> and group effects p<0.001) is given as 0.490. For the setting “ISO final concentration 100 nM, vs. 1.9±2.4 s in CTL, p<0.05”, this compound returned a period of activity of 0.9 ± 0.6 s.
